Reference: patent publication US20240116946A1 (Gilead Sciences, Inc., priority 2022, published 2024)
pEC50, pIC50: −log10 of the molar value. Where two headings read alike, the source gives them in different places.

Legend:
[1] = target: recombinant SARS-CoV-2 Main protease (Mpro) (Severe acute respiratory syndrome coronavirus 2 (2019-nCoV) (SARS-CoV-2), UniProt P0DTD1); experiment: Cov Mpro Biochemical IC50 Assay; conditions: read-out: MPro IC50
SARS-CoV-2-NLuc = experiment: microbe, parasite or virus in culture; format: cell-based, SARS Coronavirus 2
[2] = recombinant SARS-CoV-2 Mpro 7.5 nM, fluorogenic peptide substrate 40 μM
[3] = Severe acute respiratory syndrome coronavirus, 48 h; read-out: MPro EC50
[4] = Severe acute respiratory syndrome coronavirus, 48 h, read-out: MPro EC50
[5] = recombinant SARS-CoV-2 Mpro, fluorogenic peptide substrate

Compound | pIC50 [1, 2] | pEC50 (SARS-CoV-2-NLuc; [3]) | pEC50 (SARS-CoV-2-NLuc; [4]) | pIC50 [1, 5] | pEC50 (SARS-CoV-2-NLuc; read-out: MPro EC50)
Cn1ncc2cncc(-n3c(=O)[nH]c4cc(-c5cc(F)ccc5C#N)sc4c3=O)c21 [Example 700] | 7.26 | 6.33 | – | – | –
COc1cc(-c2cc3c(s2)c(=O)n(-c2cncc4nnn(C5CC5)c24)c(=O)n3CCC#N)c(Cl)cc1F [Example 939] | 7.96 | – | 7.52 | – | –
COc1cnc(Cl)c(-c2cc3c(s2)c(=O)n(-c2cncc4cccc(F)c24)c(=O)n3CCC#N)c1 [Example 1083, 3-(6-(2-chloro-5-methoxypyridin-3-yl)-3-(5-fluoroisoquinolin-4-yl)-2,4-dioxo-3,4-dihydrothieno[3,2-d]pyrimidin-1(2H)-yl)propanenitrile] | 7.95 | 7.44 | – | – | –
CC(C)(C)OC(=O)N1CCn2ncc(-c3cccc(Cl)c3-c3ccc4c(=O)n(-c5cncc6ccccc56)c(=O)[nH]c4c3)c2C1 [Example 271] | – | – | 6.68 | 6.81 | –
COc1cc(-c2cc3c(s2)c(=O)n(-c2cncc(CO)c2)c(=O)n3CCC#N)c(Cl)cc1F [Example 1100, 3-(6-(2-chloro-4-fluoro-5-methoxyphenyl)-3-(5-(hydroxymethyl)pyridin-3-yl)-2,4-dioxo-3,4-dihydrothieno[3,2-d]pyrimidin-1(2H)-yl)propanenitrile] | 8.59 | 7.82 | – | – | –
O=c1[nH]c2cc(-c3cc(C4CC4)ccc3Cl)sc2c(=O)n1-c1cncc2ccccc12 [Example 351] | – | – | 7.16 | 7.71 | –
COc1ccc(Cl)c(-c2cc3[nH]c(=O)n(-c4cncc5scc(C)c45)c(=O)c3s2)c1 (single isomer, unassigned) [Example 1052, 6-(2-chloro-5-methoxyphenyl)-3-(3-methylthieno[2,3-c]pyridin-4-yl)thieno[3,2-d]pyrimidine-2,4(1H,3H)-dione] | 8.44 | – | – | – | 8.58
O=c1[nH]c2cc(-c3c(Cl)cccc3Cl)ccc2c(=O)n1-c1cncc2ccccc12 [Example 95, 7-(2,6-dichlorophenyl)-3-(isoquinolin-4-yl)quinazoline-2,4(1H,3H)-dione] | – | 6.17 | – | 5.80 | –
COc1cc(-c2cc3c(s2)c(=O)n(-c2cncc4ccncc24)c(=O)n3CCC#N)c(Cl)cc1F (single isomer, unassigned) [Example 1098, 3-[6-(2-chloro-4-fluoro-5-methoxy-phenyl)-3-(2,6-naphthyridin-4-yl)-2,4-dioxo-thieno[3,2-d]pyrimidin-1-yl]propanenitrile] | 8.42 | – | – | – | 8.72
COc1ccc(Cl)c(-c2cc3[nH]c(=O)n(-c4cncc5scc(C)c45)c(=O)c3s2)c1 (single isomer, unassigned) [Example 1053, 6-(2-chloro-5-methoxyphenyl)-3-(3-methylthieno[2,3-c]pyridin-4-yl)thieno[3,2-d]pyrimidine-2,4(1H,3H)-dione] | 7.08 | – | – | – | 7.31
N#CCCn1c(=O)n(-c2cncc3ccccc23)c(=O)c2sc(-c3ccc(F)cc3Cl)cc21 [Example 827] | 7.99 | – | 7.98 | – | –
COc1cc(-c2cc3[nH]c(=O)n(-c4cncc5c4n(C)c(=O)n5C)c(=O)c3s2)c(Cl)cc1F [Example 750] | 8.11 | – | 7.44 | – | –
COc1cc(-c2cc3c(s2)c(=O)n(-c2cncc4nc(C)n(C)c24)c(=O)n3CCC#N)c(Cl)cc1F (single isomer, unassigned) [Example 970, 3-(6-(2-chloro-4-fluoro-5-methoxyphenyl)-3-(1,2-dimethyl-1H-imidazo[4,5-c]pyridin-7-yl)-2,4-dioxo-3,4-dihydrothieno[3,2-d]pyrimidin-1(2H)-yl)propanenitrile] | 8.40 | – | – | – | 7.72
COc1ccc(C#N)c(-c2ccc3c(=O)n(-c4cncc5ccccc45)c(=O)[nH]c3c2)c1 [Example 308, 2-[3-(4-isoquinolyl)-2,4-dioxo-1H-quinazolin-7-yl]-4-methoxy-benzonitrile] | – | – | 7.51 | 7.79 | –
COc1ccc(Cl)c(-c2cc3[nH]c(=O)n(-c4cncc5ccc(CO)cc45)c(=O)c3s2)c1 [Example 552, 6-(2-chloro-5-methoxyphenyl)-3-(6-(hydroxymethyl)isoquinolin-4-yl)thieno[3,2-d]pyrimidine-2,4(1H,3H)-dione] | 8.15 | – | 7.91 | – | –
COc1ccc(C#N)c(-c2cc3[nH]c(=O)n(-c4cncc5ccccc45)c(=O)c3s2)c1 (single isomer, unassigned) [Example 554, 2-(3-(isoquinolin-4-yl)-2,4-dioxo-1,2,3,4-tetrahydrothieno[3,2-d]pyrimidin-6-yl)-4-methoxybenzonitrile] | 8.41 | – | – | – | 7.83
COCc1cccc(Cl)c1-c1ccc2c(=O)n(-c3cncc4ccccc34)c(=O)[nH]c2c1 [Example 100] | – | – | 6.35 | 6.49 | –
CC(C)(O)[C@H](F)CNc1ccc2cncc(-n3c(=O)[nH]c4cc(-c5ccccc5Cl)sc4c3=O)c2c1 [Example 386] | – | – | 7.25 | 8.40 | –

Compound | pIC50 [1, 2] | pEC50 (SARS-CoV-2-NLuc; [3]) | pEC50 (SARS-CoV-2-NLuc; [4]) | pIC50 [1, 5] | pEC50 (SARS-CoV-2-NLuc; read-out: MPro EC50)
N#Cc1cc(F)c(F)cc1-c1cc2[nH]c(=O)n(-c3cncc4ccccc34)c(=O)c2s1 [Example 540] | 6.04 | – | < 4.30 | – | –
COc1cc(-c2cc3[nH]c(=O)n(-c4cncc5ccc(C)nc45)c(=O)c3s2)c(Cl)cc1F [Example 461, 6-(2-chloro-4-fluoro-5-methoxyphenyl)-3-(2-methyl-1,6-naphthyridin-8-yl)thieno[3,2-d]pyrimidine-2,4(1H,3H)-dione] | 8.09 | 8.00 | – | – | –
COc1ccc(Cl)c(-c2ccc3c(=O)n(-c4cncc5ccc(N6CC(OC)C6)cc45)c(=O)[nH]c3c2)c1 [Example 408] | 7.37 | – | 6.97 | – | –
COc1ccc(C#N)c(-c2cc3[nH]c(=O)n(-c4cncc5ccc(N6CCC(F)(F)C6)cc45)c(=O)c3s2)c1 [Example 418] | 7.67 | – | 6.90 | – | –
Cc1ccccc1-c1cnc2c(=O)n(-c3cncc4ccccc34)c(=O)[nH]c2c1 [Example 46] | – | 6.00 | – | 6.66 | –
COc1cnc(C#N)c(-c2cc3c(s2)c(=O)n(-c2cncc4ccccc24)c(=O)n3CCC#N)c1 (single isomer, unassigned) [Example 1093, 3-(1-(2-cyanoethyl)-3-(isoquinolin-4-yl)-2,4-dioxo-1,2,3,4-tetrahydrothieno[3,2-d]pyrimidin-6-yl)-5-methoxypicolinonitrile] | 6.98 | – | – | – | 6.80
COc1cc(-c2cc3c(s2)c(=O)n(-c2cncc4cnn(C)c24)c(=O)n3CCC#N)c(C#N)cc1F (single isomer, unassigned) [Example 1003, 2-[1-(2-cyanoethyl)-3-(1-methylpyrazolo[4,3-c]pyridin-7-yl)-2,4-dioxo-thieno[3,2-d]pyrimidin-6-yl]-5-fluoro-4-methoxy-benzonitrile] | 8.55 | – | – | – | 8.25
N#Cc1cc(F)c(F)cc1-c1ccc2c(=O)n(-c3cncc4ccccc34)c(=O)[nH]c2c1 [Example 323] | – | – | 6.25 | 6.95 | –
N#CCCn1c(=O)n(-c2cnccn2)c(=O)c2sc(-c3ccccc3Cl)cc21 [Example 828] | 7.03 | – | 6.34 | – | –
COc1ccc(Cl)c(-c2cc3[nH]c(=O)n(-c4cncc5scc(C)c45)c(=O)c3s2)c1 [Example 609, 6-(2-chloro-5-methoxyphenyl)-3-(3-methylthieno[2,3-c]pyridin-4-yl)thieno[3,2-d]pyrimidine-2,4(1H,3H)-dione] | > 8.60 | – | > 8.47 | – | –
COc1cc(-c2cc3c(s2)c(=O)n(-c2cnccc2C(F)(F)F)c(=O)n3CCC#N)c(C#N)cc1F [Example 862] | 7.02 | – | 6.68 | – | –
COc1cc(F)ccc1-c1cc2[nH]c(=O)n(-c3cncc4ccccc34)c(=O)c2s1 [Example 178] | – | – | 6.71 | 6.66 | –
Cc1ccc(-c2ccc3c(=O)n(-c4cncc5ccccc45)c(=O)[nH]c3c2)c(Cl)c1 [Example 192] | – | – | 5.41 | < 4.30 | –
O=c1[nH]c2cc(-c3ccccc3Cl)ncc2c(=O)n1-c1cncc2ccccc12 [Example 163, 7-(2-chlorophenyl)-3-(4-isoquinolyl)-1H-pyrido[4,3-d]pyrimidine-2,4-dione] | – | – | 6.03 | 6.31 | –
N#Cc1cc(-c2cccc(Cl)c2-c2ccc3c(=O)n(-c4cncc5ccccc45)c(=O)[nH]c3c2)cnc1N1CCOCC1 [Example 277] | – | – | 7.24 | 6.91 | –
O=c1[nH]c2cc(-c3c(Cl)cccc3-c3ccc4ncnn4c3)ccc2c(=O)n1-c1cncc2ccccc12 [Example 241] | – | – | 7.27 | 7.46 | –
Cc1cn(C)nc1-c1cccc(Cl)c1-c1cc2[nH]c(=O)n(-c3cncc4ccccc34)c(=O)c2s1 [Example 519] | 7.96 | – | 7.50 | – | –
Cc1c(-c2ccccc2Cl)sc2c1c(=O)n(-c1cncc3ccccc13)c(=O)n2CC1CCCC1 [Example 64] | – | 5.50 | – | 4.55 | –
